Results from patent US20200079766A1, “MONOCYCLIC OGA INHIBITOR COMPOUNDS” (Janssen Pharmaceutica NV, priority 2016, published 2020).
Counter-ions that a name gives are not always drawn.

What was measured:
[1] = target: T1, recombinant human Meningioma Expressed Antigen 5 (MGEA5), also referred to as O-GlcNAcase (OGA) (Homo sapiens, UniProt O60502); assay: OGA biochemical assay: inhibition of FM-GlcNAc hydrolysis, fluorescence; protocol A (10 nM OGA, 1 h) or protocol B (2 nM OGA, 6 h); conditions: Enzymatic protocol B (2 nM OGA, 6 h); for IC50: read-out: Enzymatic hOGA, pIC50 (converted)
T1 construct: Full length OGA enzyme was purchased at OriGene (cat # TP322411); purchased OriGene TP322411
T1 sequence (O60502 1-916): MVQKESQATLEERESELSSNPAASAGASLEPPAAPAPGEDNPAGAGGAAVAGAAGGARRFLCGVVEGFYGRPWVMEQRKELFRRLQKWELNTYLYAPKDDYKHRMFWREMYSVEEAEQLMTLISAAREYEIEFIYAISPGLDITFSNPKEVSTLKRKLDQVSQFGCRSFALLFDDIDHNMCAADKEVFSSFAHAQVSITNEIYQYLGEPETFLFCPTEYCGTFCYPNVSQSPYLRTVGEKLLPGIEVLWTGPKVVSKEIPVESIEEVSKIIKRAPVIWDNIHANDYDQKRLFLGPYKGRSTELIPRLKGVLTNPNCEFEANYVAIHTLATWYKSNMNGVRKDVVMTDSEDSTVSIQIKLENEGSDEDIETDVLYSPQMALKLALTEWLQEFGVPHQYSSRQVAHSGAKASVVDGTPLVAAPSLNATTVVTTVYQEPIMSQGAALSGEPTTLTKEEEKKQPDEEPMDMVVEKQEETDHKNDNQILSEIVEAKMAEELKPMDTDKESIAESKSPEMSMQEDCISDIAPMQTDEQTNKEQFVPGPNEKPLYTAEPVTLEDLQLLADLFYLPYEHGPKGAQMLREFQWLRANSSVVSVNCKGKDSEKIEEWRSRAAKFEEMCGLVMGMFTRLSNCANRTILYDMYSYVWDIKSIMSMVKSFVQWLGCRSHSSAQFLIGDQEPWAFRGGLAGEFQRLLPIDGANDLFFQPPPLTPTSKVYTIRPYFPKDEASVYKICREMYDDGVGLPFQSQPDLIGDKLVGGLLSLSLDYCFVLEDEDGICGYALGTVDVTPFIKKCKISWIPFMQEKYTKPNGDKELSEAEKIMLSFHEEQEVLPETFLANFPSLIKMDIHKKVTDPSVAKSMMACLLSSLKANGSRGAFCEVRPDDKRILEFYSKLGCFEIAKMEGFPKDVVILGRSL
Summary of the method: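 Full-length human OGA in 200 mM citrate/phosphate pH 7.2 with 0.005% Tween-20, compound pre-incubated 60 min at RT, then 100 uM FM-GlcNAc (final); 10 nM enzyme for 1 h or 2 nM for 6 h at RT. Stopped with pH 11.0 carbonate; fluorescein read at ex 485/em 538 nm. IC50 and Hill coefficient from curve fit.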

[2] = test system: OGA in HEK293 cells inducible for P301L mutant human Tau (isoform 2N4R); assay: OGA cellular assay: immunocytochemical detection of O-GlcNAcylated proteins (CTD110.6 antibody) after 6 h incubation; type: cell-based; conditions: Homo sapiens, HEK293, 6 h; for Emax: maximum = Thiamet G 200 uM; for EC50: read-out: Cellular hOGA, pEC50 (converted)
Summary of the method: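 Low-glucose medium, 6 h compound exposure at 0.2% DMSO; cells PFA-fixed and O-GlcNAc ICC signal imaged at 488 nm (9 fields/well), Hoechst nuclei counted for toxicity. Thiamet G 200 uM on each plate as maximum; IC50 from non-linear regression.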

SMILES | melting point | Emax [1] | IC50 [1] | Emax [2] | EC50 [2]
Cc1cc(CC2CCCN(C(C)c3ccc4c(c3)OCCO4)C2)cc(C)n1 (racemic) (as salt: HCl) [compound 142] | 256.05 °C |  |  |  | 
CC(=O)Nc1ncc(CN2CCC(OCc3cc(C)nc(C)c3)C2)s1 (racemic) [Product 81] | 118.26 °C |  |  |  | 
CC(=O)Nc1ncc(CN2CCC(COc3cc(C)nc(C)c3)C2)s1 (racemic) [Product 89] | 125.9 °C |  |  |  | 
CC(=O)Nc1ncc(CN2CCC(Cc3cncnc3C)C2)s1 (racemic) [Product 103] | 147.16 °C |  |  |  | 
Cc1cc(CC2CCCN(C(C)c3ccc4sc(C)nc4c3)C2)cc(C)n1 (single isomer, unassigned) (as salt: HCl) [compound 118] | 270.1 °C |  |  |  | 
CC(=O)Nc1ncc(CN2CCC(Cc3cc(F)ncc3C)C2)s1 (stereo not shown) [Product 106] | 140.36 °C |  |  |  | 
CC(=O)Nc1ncc(CN2CCC(Cc3ccc(C)c(C)n3)C2)s1 (stereo not shown) [compound 38] | 107.53 °C | 99.7% | 19.5 nM | 90.3% | 39.8 nM
CC(=O)Nc1ncc(CN2CCC(Cc3ncccc3F)C2)s1 (stereo not shown) [compound 39] | 150.08 °C | 99.2% | 60.3 nM |  | 
CC(=O)Nc1ncc(CN2CCC(Cc3nccc(C)c3F)C2)s1 (stereo not shown) [compound 43] | 129.25 °C | 102% | 9.12 nM | 87% | 79.4 nM
CC(=O)Nc1ncc(CN2CCC(Cc3ccc(F)c(C)n3)C2)s1 (stereo not shown) [compound 107] | 173.68 °C | 102% | 40.7 nM | 82% | 138 nM
CC(=O)Nc1ncc(CN2CCC(Cc3cncc(C)n3)C2)s1 (stereo not shown) [compound 108] | 118.3 °C | 103% | 33.1 nM | 78.9% | 155 nM
COc1nc(C)ccc1C[C@H]1CCCN(Cc2cnc(NC(C)=O)s2)C1 [compound 126] |  | 100% | 1.38 nM | 97.5% | 11.5 nM
CC(=O)Nc1ncc(CN2CCC[C@H](Cc3cncc(C)n3)C2)s1 [compound 127] |  | 102% | 2.88 nM | 88.5% | 27.5 nM
CC(=O)Nc1ncc(CN2CCC[C@H](Cc3nc(C)cnc3C)C2)s1 [compound 128] |  | 102% | 1.82 nM | 93.2% | 39.8 nM
CC(=O)Nc1ncc(CN2CCC[C@H](Cc3ccc(F)c(C)n3)C2)s1 [compound 129] |  | 102% | 2.82 nM | 101% | 20 nM
CC(=O)Nc1ncc(CN2CCCC(COc3cc(C)nc(C)c3)C2)o1 (stereo not shown) [compound 138] |  | 102% | 53.7 nM | 74.2% | 437 nM
COc1cc(C[C@H]2CCN(Cc3cnc(NC(C)=O)s3)C2)cc(C(F)(F)F)n1 [compound 143] |  | 102% | 21.4 nM | 86.2% | 60.3 nM
Cc1cc(C2CCCN(C(C)c3ccc4nccnc4c3)C2)cc(C(F)(F)F)n1 (stereo not shown) [compound 144] |  | 101% | 41.7 nM | 42.8% | > 1000 nM
Cc1cc(C[C@H]2CCCN(Cc3ccc4sc(C)nc4c3)C2)cc(C)n1 [compound 145] |  | 101% | 126 nM | 39.4% | > 1000 nM
Cc1cc(C[C@H]2CCCN(Cc3ccc4scnc4c3)C2)cc(C)n1 [compound 147] |  | 99% | 282 nM | 33.2% | > 1000 nM
Cc1cc(C[C@H]2CCCN(Cc3ccc4c(c3)OCCO4)C2)cc(C)n1 [compound 152] |  | 102% | 102 nM | 41.9% | > 1000 nM
CC(=O)Nc1ncc(CN2CCC[C@@H](COc3cc(C)nc(C)c3)C2)s1 [compound 154] |  | 103% | 15.1 nM | 116% | 38 nM
